From ChEMBL document CHEMBL4818987, “Recent advances of podophyllotoxin/epipodophyllotoxin hybrids in anticancer activity, mode of action, and structure-activity relationship: An update (2010-2020)” (Eur J Med Chem, 2020) come the findings set out here.

Series [1] is described as follows: Cytotoxicity against human KBV cells by MTT assay. The class given is functional, cell-based.
The subject of the next series is KB. The series can be described thus: Cytotoxicity against human KB cells by MTT assay. The class given is functional, cell-based.
The subject of series [2] is K562. The series can be described thus: Cytotoxicity against human K562 cells by SRB assay. The class given is functional, cell-based.
Series [3] relates to K562/A02. The series can be described thus: Cytotoxicity against human K562/A02 cells by SRB assay. The class given is functional, cell-based.
Series [4] has as its system HeLa. Nature of the series: Cytotoxicity against human HeLa cells by MTT assay. The class given is functional, cell-based.
The subject of series [5] is K562. Nature of the series: Cytotoxicity against human K562 cells by MTT assay. The class given is functional, cell-based.
The test system of series [6] is K562/A02. The series can be described thus: Cytotoxicity against human K562/A02 cells by MTT assay. The class given is functional, cell-based.
Series [7] is described as follows: Resistance index, ratio of IC50 for human K562/AO2 cells to IC50 for human K562 cells. The class given is functional.
The test system of series [8] is Huh-7. The series can be described thus: Potency index, ratio of etoposide IC50 to test compound IC50 for antiproliferative activity against human Huh-7 cells. The class given is functional.
Series [9] deals with Huh-7. The series can be described thus: Antiproliferative activity against human Huh7 cells incubated for 48 hrs by MTT assay. The class given is functional, cell-based. To be noted: Huh-7, 48 h.
Series [10] relates to A549. The series can be described thus: Potency index, ratio of etoposide IC50 to test compound IC50 for antiproliferative activity against human A549 cells. The class given is functional.
The subject of series [11] is MCF7. Nature of the series: Antiproliferative activity against human MCF7 cells incubated for 48 hrs by MTT assay. The settings on record: MCF7, 48 h. The class given is functional, cell-based.
The subject of series [12] is HeLa. The series can be described thus: Potency index, ratio of etoposide IC50 to test compound IC50 for antiproliferative activity against human HeLa cells. The class given is functional.
Series [13] deals with MCF7. The series can be described thus: Potency index, ratio of etoposide IC50 to test compound IC50 for antiproliferative activity against human MCF7 cells. The class given is functional.
Series [14] relates to BGC-823. Nature of the series: Potency index, ratio of etoposide IC50 to test compound IC50 for antiproliferative activity against human BGC-823 cells. The class given is functional.
Series [15] deals with BGC-823. The series can be described thus: Antiproliferative activity against human BGC-823 cells incubated for 48 hrs by MTT assay. The class given is functional, cell-based. To be noted: BGC-823, 48 h.
Series [16] concerns A549. The series can be described thus: Antiproliferative activity against human A549 cells incubated for 48 hrs by MTT assay. The class given is functional, cell-based. To be noted: A549, 48 h.
The test system of series [17] is HeLa. Nature of the series: Antiproliferative activity against human HeLa cells incubated for 48 hrs by MTT assay. The class given is functional, cell-based.
Another series concerns Calu-1. The series can be described thus: Antiproliferative activity against human Calu-1 cells incubated for 24 hrs by MTT assay. The class given is functional, cell-based. The settings on record: Calu-1, 24 h.
For series [18], the system named is HeLa. The series can be described thus: Antiproliferative activity against human HeLa cells incubated for 24 hrs by MTT assay. The class given is functional, cell-based.
A short description of series [19]: Selectivity ratio of IC50 for African green monkey Vero cells to IC50 for human A549 cells. The class given is toxicity. The settings on record: read-out: Ratio IC50.
The next series deals with L02. The series can be described thus: Cytotoxicity against human L02 cells. The class given is cell-based.
In series [20] the test system is A549. Nature of the series: Antiproliferative activity against human A549 cells incubated for 24 hrs by MTT assay. The settings on record: A549, 24 h. The class given is functional, cell-based.
Series [21] can be described thus: Selectivity ratio of IC50 for human L02 cells to IC50 for human Calu-1 cells. The class given is toxicity. To be noted: L02 cells / Calu-1 cells, read-out: Ratio IC50.
Series [22] in a line: Selectivity ratio of IC50 for African green monkey Vero cells to IC50 for human Calu-1 cells. The class given is toxicity. The settings on record: Vero cells / Calu-1 cells, read-out: Ratio IC50.
In the next series the test system is Vero. The series can be described thus: Cytotoxicity against African green monkey Vero cells. The class given is cell-based. To be noted: Chlorocebus sabaeus.
Series [23] in a line: Selectivity ratio of IC50 for African green monkey Vero cells to IC50 for human HeLa cells. The class given is toxicity. The settings on record: read-out: Ratio IC50.
Series [24] can be described thus: Selectivity ratio of IC50 for human L02 cells to IC50 for human HeLa cells. To be noted: read-out: Ratio IC50. The class given is toxicity.
Series [25] is described as follows: Selectivity ratio of IC50 for human L02 cells to IC50 for human A549 cells. The class given is toxicity. To be noted: read-out: Ratio IC50.

A value given as a limit tells only on which side of the number the result lay.

In the case of `COC(=O)c1cccc2c1c(C(=O)C(=O)N[C@@H]1c3cc4c(cc3[C@@H](c3cc(OC)c(OC)c(OC)c3)[C@H]3C(=O)OC[C@@H]31)OCO4)cn2C(=O)c1ccccc1`, the IC50 in series [1] was found to be 150 nM; in the series on KB, 3160 nM; in the series on K562 [2] it was 150 nM; with K562/A02 [3], 150 nM; in the series on HeLa [4] it was 150 nM.

Consider `COc1cc([C@@H]2c3cc4c(cc3[C@@H](c3c[nH]c5ccc(OCc6ccc(C(C)(C)C)cc6)cc35)[C@H]3COC(=O)[C@H]23)OCO4)cc(OC)c1OC`, for which the IC50 is above 260 nM in the series on K562 [5], 289 nM with K562/A02 [6] and above 260 nM in the series with HeLa [4]. Besides, in series [7], the “Ratio IC50” value came to 0.004.

For the molecule `COc1cc([C@@H]2c3cc4c(cc3[C@@H](Nc3ncccc3F)[C@H]3COC(=O)[C@H]23)OCO4)cc(OC)c1O`, the “Ratio IC50” value with Huh-7 [8], with A549 [10], with HeLa [12], in the series on MCF7 [13] and in the series on BGC-823 [14] was 3.3 throughout. Moreover, the IC50 with Huh-7 [9], with MCF7 [11], with BGC-823 [15] and in the series with A549 [16] was 60 nM in each case.

As for `COc1cc([C@@H]2c3cc4c(cc3[C@@H](Nc3ncccc3F)[C@H]3COC(=O)[C@H]23)OCO4)cc(OC)c1OC`, the “Ratio IC50” value with Huh-7 [8], in the series with A549 [10], in the series with HeLa [12], in the series with MCF7 [13] and in the series with BGC-823 [14] was 3.3 in each case. The IC50 in the series with Huh-7 [9], in the series with MCF7 [11], with HeLa [17], with BGC-823 [15] and in the series on A549 [16] was 60 nM each time.

On to `COc1cc([C@@H]2c3cc4c(cc3[C@H](OC(=O)CCCCC3CCSC(c5cccc(C(F)(F)F)c5)S3)[C@H]3COC(=O)[C@H]23)OCO4)cc(OC)c1OC` (some centres not stated), for which the IC50 with Calu-1 is 2680 nM; in the series on HeLa [18], 2680 nM; in the series with L02 it was above 93800 nM; with A549 [20], 2680 nM; with Vero it was above 93800 nM. The selectivity ratio in [19], in series [21], in [22], in series [23], in series [24] and in series [25] was at least 9.7 throughout.

As for `COc1cc([C@@H]2c3cc4c(cc3[C@@H](NC(=O)C(=O)c3c[nH]c5ccc(C(=O)NC(C)C)cc35)[C@H]3COC(=O)[C@H]23)OCO4)cc(OC)c1OC`, the IC50 with K562 [5] and with K562/A02 [6] was 1270 nM each time.

For the molecule `COc1cc([C@@H]2c3cc4c(cc3[C@H](OC(=O)CCCCC3CCSC(c5ccc(C(F)(F)F)cc5)S3)[C@H]3COC(=O)[C@H]23)OCO4)cc(OC)c1OC` (some centres not stated), the IC50 in the series on Calu-1 is 2680 nM; in the series on HeLa [18], 2680 nM; with L02 it was above 93800 nM; in the series with A549 [20] it was 2680 nM; in the series with Vero, above 93800 nM. For the same molecule, the selectivity ratio in series [19], in series [21], in series [22], in series [23], in series [24] and in series [25] was at least 9.7 in each case.
